Reference: publication PMC8807399, “Synthesis, Characterization, and in vivo Evaluation of a Novel Potent Autotaxin-Inhibitor” (Frontiers in Pharmacology, 2022)

Legend:
[1] = target: T1, LPA2 receptor (Homo sapiens, UniProt Q9HBW0); test: Off-target screen LPA2 receptor, antagonist mode; assay type: cell-based; conditions: 10 µM, single point, duplicates
T1 construct: purchased Eurofins CEREP SA

[2] = tested on: PCP receptor; test: Off-target screen PCP receptor; conditions: 10 µM; single point, duplicates
[3] = target: T2, Serotonin transporter (Homo sapiens, UniProt P31645); test: Off-target screen Serotonin transporter; assay type: binding; conditions: 10 µM; single point, duplicates
T2 construct: purchased Eurofins CEREP SA

[4] = target: T3, Histamine H2 receptor (Homo sapiens, UniProt P25021); test: Off-target screen Histamine H2; assay type: binding; conditions: 10 µM; single point, duplicates
T3 construct: purchased Eurofins CEREP SA

[5] = target: T4, PPARγ (Homo sapiens, UniProt P37231); test: Off-target screen PPARγ, antagonist mode; assay type: cell-based; conditions: 10 µM, single point, duplicates
T4 construct: purchased Eurofins CEREP SA

[6] = tested on: Nicotinic receptor (muscle); test: Off-target screen Nicotinic receptor (muscle); conditions: 10 µM; single point, duplicates
[7] = target: T5, S1P2 (Homo sapiens, UniProt O95136); test: Off-target screen S1P2, agonist mode; assay type: cell-based; conditions: 10 µM, single point, duplicates
T5 construct: purchased Eurofins CEREP SA

[8] = target: T6, Muscarininc receptor M4 (Homo sapiens, UniProt P08173); test: Off-target screen Muscarinic M4; assay type: binding; conditions: 10 µM; single point, duplicates
T6 construct: purchased Eurofins CEREP SA

[9] = Artificial membrane permeability assay; assay type: in vitro ADME; conditions: PAMPA, read-out: Permeability Pe
Protocol: The assay was performed in an automated fashion on 96-well microplates. The permeation of drugs was measured using a “sandwich” construction: A filter-plate was coated with phospholipids (membrane) and placed into a donor compartment containing a compound/buffer solution. Finally, the top of filter-plate was filled with buffer solution (acceptor). Donor concentration was measured at t-start (reference) and compared with the donor and acceptor concentration after a certain time (t-end) to calculate the extent of passage of the compound through the membrane. The main readout of the assay was the permeability value Pe expressed in 10^–6 * cm/s. Secondary readouts determined were the amount of compound in the donor and acceptor compartments as well as the retention in the membrane. Depending on the permeation rate and the membrane retention the compounds were classified as low (Pe < 0.2 and membrane < 20%) or medium and high (Pe ≥ 0.2 or Pe < 0.2 and membrane ≥ 20%). Each sample was measured in triplicate and a standard deviation was determined for the permeation constant Pe.

[10] = tested on: HIV-1 protease; test: Off-target screen HIV-1 protease; conditions: 10 µM; single point, duplicates
[11] = target: T7, MMP-9 (Homo sapiens, UniProt P14780); test: Off-target screen MMP-9; assay type: biochemical; conditions: 10 µM; single point, duplicates
T7 construct: purchased Eurofins CEREP SA

[12] = target: T8, HDAC11 (Homo sapiens, UniProt Q96DB2); test: Off-target screen HDAC11; assay type: biochemical; conditions: 10 µM; single point, duplicates
T8 construct: purchased Eurofins CEREP SA

[13] = target: T9, Dopamine D1 receptor (Homo sapiens, UniProt P21728); test: Off-target screen Dopamine D1; assay type: binding; conditions: 10 µM; single point, duplicates
T9 construct: purchased Eurofins CEREP SA

[14] = target: T10, ECE-1 (Homo sapiens, UniProt P42892); test: Off-target screen ECE-1; assay type: biochemical; conditions: 10 µM; single point, duplicates
T10 construct: purchased Eurofins CEREP SA

[15] = target: T11, CDK2 (Homo sapiens, UniProt P24941); test: Off-target screen CDK2; assay type: biochemical; conditions: 10 µM; single point, duplicates
T11 construct: purchased Eurofins CEREP SA

[16] = target: T12, MAO-B (Homo sapiens, UniProt P27338); test: Off-target screen MAO-B; assay type: biochemical; conditions: 10 µM; single point, duplicates
T12 construct: purchased Eurofins CEREP SA

[17] = target: T13, MMP-3 (Homo sapiens, UniProt P08254); test: Off-target screen MMP-3; assay type: biochemical; conditions: 10 µM; single point, duplicates
T13 construct: purchased Eurofins CEREP SA

[18] = Lipophilicity (LogD, octanol/buffer); assay type: physicochemical; conditions: 1-octanol / 25 mM phosphate buffer; pH 7.4, octanol/25 mM phosphate buffer
Protocol: The experiment started with the accurate coating of the hydrophobic layer (0.45 µm PVDF membranes), which was fixed on the bottom of each DIFI©-tube (Weidmann Medical Technology AG, Rapperswil, Switzerland). The coated membranes were then connected to a 96-well plate which has been prefilled with exactly 150 µl of the selected aqueous buffer solution (25 mM phosphate buffer, pH 7.4). The buffer solution contains already the compound of interest with a maximum starting concentration of 85 µM. To expand the measurement range down to logD = −0.5 and up to logD = +4, it is necessary to carry out the procedure at two different octanol/water ratios: One with an excess of octanol for hydrophilic compounds (logD < 1) and one with a low volume of octanol for the lipophilic compounds (logD > 1). Therefore, parts of the DIFI©-tubes were filled with 15 µl 1-octanol and another part with 1 µl 1-octanol. The resulting sandwich guarantees that the membrane was completely dipped in the buffer solution. The plate was then sealed and shaken for 12 h at room temperature (23°C). During this time, the substance is distributed between the layer, the octanol, and the buffer solution. After having reached a distribution equilibrium, the DIFI©-tubes were easily disassembled from the top of the 96-well plate, so that the remaining sample concentration in the aqueous phase could be analyzed by LC/MS.

[19] = target: T14, LPA3 receptor (Homo sapiens, UniProt Q9UBY5); test: Off-target screen LPA3 receptor, agonist mode; assay type: cell-based; conditions: 10 µM, single point, duplicates
T14 construct: purchased Eurofins CEREP SA

[20] = target: T15, Adenosine A3 respetor (Homo sapiens, UniProt P0DMS8); test: Off-target screen Adenosine A3; assay type: binding; conditions: 10 µM; single point, duplicates
T15 construct: purchased Eurofins CEREP SA

[21] = Glutathione addition screening; assay type: in vitro ADME; conditions: human liver microsomes + NADPH + GSH
Protocol: All sample handling was performed based on a 96-well plate format using an automated pipetting system. The test compounds, positive controls (diclofenac, troglitazone, nefazodone, 4-[[1-(4-fluorophenyl)-2-methyl-1H-imidazol-4-yl]ethynyl]-2-methylpyridine) and solvent control (DMSO) were incubated with human liver microsomes supplemented with NADPH and reduced GSH. Stable GSH conjugates whose production can be assumed to be the result of chemically reactive metabolites were detected using a quadrupole time of flight mass spectrometer run in untargeted full scan accurate mass MSE mode (Waters Xevo G1 QTOFMSE; Waters GmbH, Eschborn, Germany). This generic GSH adduct detection method and the assay workflow are taking advantage of the specific fragmentation behavior of the peptide moiety upon collision induced dissociation of GSH adducts and so are largely independent of the conjugate (“X”) itself.

[22] = target: T16, LPA1 receptor (Homo sapiens, UniProt Q92633); test: Off-target screen LPA1 receptor; conditions: 10 µM; single point, duplicates
T16 construct: purchased Eurofins CEREP SA

[23] = target: T17, Histamine H3 receptor (Homo sapiens, UniProt Q9Y5N1); test: Off-target screen Histamine H3; assay type: binding; conditions: 10 µM; single point, duplicates
T17 construct: purchased Eurofins CEREP SA

[24] = target: T18, Alpha1A-adrenoreceptor (Homo sapiens, UniProt P35348); test: Off-target screen Alpha1A-adrenoreceptor; assay type: binding; conditions: 10 µM; single point, duplicates
T18 construct: purchased Eurofins CEREP SA

[25] = target: T19, 5HT2a (Homo sapiens, UniProt P28223); test: Off-target screen 5HT2a; assay type: binding; conditions: 10 µM; single point, duplicates
T19 construct: purchased Eurofins CEREP SA

[26] = target: T20, HDAC4 (Homo sapiens, UniProt P56524); test: Off-target screen HDAC4; assay type: biochemical; conditions: 10 µM; single point, duplicates
T20 construct: purchased Eurofins CEREP SA

[27] = tested on: GABA-A (benzodiazepine site); test: Off-target screen GABA-A (benzodiazepine site); conditions: 10 µM; single point, duplicates

T8 sequence (Q96DB2 whole entry): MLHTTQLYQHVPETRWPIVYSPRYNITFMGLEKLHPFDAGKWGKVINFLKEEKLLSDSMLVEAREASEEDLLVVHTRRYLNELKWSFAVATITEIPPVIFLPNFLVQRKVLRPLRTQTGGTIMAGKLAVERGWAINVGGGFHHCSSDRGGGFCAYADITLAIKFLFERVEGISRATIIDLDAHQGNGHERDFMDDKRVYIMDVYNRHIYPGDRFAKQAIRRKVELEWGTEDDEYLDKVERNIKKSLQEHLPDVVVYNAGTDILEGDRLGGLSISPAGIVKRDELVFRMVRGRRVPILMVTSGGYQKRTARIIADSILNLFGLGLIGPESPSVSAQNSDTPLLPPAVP
T5 sequence (O95136 whole entry): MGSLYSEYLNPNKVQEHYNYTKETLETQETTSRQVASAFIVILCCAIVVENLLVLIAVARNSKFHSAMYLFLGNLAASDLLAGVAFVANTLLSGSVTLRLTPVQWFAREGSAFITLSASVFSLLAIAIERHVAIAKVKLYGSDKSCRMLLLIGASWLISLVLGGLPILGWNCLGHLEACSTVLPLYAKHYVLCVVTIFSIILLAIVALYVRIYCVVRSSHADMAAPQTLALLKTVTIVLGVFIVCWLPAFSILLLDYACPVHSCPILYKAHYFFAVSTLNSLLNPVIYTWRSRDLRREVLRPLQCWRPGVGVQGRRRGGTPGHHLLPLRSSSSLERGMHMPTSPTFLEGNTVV
T13 sequence (P08254 100-477): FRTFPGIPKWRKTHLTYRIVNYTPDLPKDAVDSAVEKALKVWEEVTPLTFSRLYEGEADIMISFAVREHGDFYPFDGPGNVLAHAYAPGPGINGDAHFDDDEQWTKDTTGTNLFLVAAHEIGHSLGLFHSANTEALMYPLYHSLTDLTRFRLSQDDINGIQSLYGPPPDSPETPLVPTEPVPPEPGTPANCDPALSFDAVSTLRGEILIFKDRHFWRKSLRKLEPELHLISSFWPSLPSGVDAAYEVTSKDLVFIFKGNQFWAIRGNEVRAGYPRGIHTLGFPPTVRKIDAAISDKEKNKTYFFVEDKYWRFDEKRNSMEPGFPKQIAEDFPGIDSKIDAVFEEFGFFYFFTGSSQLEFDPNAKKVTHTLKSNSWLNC
T6 sequence (P08173 whole entry): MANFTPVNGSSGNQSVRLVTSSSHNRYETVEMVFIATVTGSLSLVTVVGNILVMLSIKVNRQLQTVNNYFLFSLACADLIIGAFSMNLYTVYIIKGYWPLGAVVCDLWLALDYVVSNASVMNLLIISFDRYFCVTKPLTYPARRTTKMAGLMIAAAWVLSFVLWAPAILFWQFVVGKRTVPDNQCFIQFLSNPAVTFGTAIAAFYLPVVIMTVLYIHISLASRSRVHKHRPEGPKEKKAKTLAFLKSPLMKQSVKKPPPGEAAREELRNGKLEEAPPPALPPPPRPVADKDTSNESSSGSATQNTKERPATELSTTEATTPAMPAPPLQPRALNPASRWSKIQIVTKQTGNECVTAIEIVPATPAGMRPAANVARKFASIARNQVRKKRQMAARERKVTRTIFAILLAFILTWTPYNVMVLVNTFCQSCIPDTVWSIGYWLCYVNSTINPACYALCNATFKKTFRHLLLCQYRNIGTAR
T19 sequence (P28223 whole entry): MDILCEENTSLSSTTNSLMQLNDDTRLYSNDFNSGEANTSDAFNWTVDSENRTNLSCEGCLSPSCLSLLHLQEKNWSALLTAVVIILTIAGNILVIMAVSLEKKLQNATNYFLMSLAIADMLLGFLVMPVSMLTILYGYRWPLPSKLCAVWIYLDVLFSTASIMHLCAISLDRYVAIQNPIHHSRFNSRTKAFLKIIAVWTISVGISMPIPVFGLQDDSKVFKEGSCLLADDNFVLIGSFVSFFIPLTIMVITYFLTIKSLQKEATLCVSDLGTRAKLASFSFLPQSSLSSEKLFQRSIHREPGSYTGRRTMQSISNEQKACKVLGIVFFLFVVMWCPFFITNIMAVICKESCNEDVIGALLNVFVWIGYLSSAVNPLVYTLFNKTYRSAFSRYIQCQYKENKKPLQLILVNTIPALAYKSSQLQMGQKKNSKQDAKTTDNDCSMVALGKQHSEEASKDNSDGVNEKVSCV
T14 sequence (Q9UBY5 whole entry): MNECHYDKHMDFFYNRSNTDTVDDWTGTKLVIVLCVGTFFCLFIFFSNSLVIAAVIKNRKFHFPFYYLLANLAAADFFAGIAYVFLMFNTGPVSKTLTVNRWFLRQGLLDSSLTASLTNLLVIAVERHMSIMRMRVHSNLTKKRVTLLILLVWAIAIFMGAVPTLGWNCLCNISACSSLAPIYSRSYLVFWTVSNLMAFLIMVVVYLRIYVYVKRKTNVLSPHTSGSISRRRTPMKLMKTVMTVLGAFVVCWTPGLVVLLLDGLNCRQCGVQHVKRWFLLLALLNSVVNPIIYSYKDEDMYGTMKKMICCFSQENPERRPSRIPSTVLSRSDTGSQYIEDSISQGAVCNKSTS
T16 sequence (Q92633 whole entry): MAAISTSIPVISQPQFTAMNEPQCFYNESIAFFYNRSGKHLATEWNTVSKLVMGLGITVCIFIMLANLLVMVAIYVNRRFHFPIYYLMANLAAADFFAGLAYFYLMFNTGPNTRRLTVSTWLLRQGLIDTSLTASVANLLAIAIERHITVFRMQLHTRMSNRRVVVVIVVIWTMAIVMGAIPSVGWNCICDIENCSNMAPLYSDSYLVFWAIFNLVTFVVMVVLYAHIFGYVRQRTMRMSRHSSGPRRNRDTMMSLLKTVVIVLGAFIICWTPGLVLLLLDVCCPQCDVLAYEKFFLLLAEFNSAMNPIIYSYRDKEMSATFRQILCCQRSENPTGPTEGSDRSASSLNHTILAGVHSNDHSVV
T2 sequence (P31645 whole entry): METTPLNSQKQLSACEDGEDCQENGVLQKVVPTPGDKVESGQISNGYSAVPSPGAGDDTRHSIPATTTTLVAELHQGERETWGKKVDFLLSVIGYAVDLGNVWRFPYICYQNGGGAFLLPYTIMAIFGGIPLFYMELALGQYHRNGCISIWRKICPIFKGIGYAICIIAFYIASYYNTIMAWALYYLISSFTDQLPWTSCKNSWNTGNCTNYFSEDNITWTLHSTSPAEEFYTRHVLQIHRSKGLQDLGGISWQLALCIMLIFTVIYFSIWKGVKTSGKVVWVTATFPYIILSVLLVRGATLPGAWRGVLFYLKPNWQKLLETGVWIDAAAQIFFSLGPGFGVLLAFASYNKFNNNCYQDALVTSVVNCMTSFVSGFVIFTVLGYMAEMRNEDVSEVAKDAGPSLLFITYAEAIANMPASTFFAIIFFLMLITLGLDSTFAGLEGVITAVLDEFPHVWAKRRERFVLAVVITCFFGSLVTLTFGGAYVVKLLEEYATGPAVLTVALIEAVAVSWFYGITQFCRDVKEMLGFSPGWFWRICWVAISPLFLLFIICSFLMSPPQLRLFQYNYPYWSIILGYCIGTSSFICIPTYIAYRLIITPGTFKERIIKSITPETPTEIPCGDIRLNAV
T4 sequence (P37231 whole entry): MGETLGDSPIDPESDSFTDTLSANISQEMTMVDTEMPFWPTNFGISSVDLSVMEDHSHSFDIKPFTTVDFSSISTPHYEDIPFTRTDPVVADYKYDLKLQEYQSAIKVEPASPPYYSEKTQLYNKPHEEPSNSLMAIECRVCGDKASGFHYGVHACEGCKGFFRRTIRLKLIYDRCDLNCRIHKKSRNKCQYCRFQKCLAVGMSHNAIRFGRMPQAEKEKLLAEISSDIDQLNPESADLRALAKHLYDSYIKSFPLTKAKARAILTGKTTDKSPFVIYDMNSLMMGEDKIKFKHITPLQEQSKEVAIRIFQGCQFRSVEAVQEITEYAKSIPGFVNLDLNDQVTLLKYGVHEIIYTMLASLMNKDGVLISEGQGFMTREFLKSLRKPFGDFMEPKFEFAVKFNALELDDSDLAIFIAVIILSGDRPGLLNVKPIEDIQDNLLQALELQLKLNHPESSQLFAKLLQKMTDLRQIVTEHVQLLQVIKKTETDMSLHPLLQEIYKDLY
T15 sequence (P0DMS8 whole entry): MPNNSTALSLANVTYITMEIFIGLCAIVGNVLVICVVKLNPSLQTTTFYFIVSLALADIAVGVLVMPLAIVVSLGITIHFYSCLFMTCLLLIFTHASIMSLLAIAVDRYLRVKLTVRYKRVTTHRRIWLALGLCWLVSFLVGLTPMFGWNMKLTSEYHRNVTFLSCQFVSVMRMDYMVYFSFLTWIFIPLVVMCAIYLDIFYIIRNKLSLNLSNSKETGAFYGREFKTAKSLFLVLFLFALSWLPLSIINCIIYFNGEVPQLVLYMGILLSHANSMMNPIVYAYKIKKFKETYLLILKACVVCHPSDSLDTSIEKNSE
T17 sequence (Q9Y5N1 whole entry): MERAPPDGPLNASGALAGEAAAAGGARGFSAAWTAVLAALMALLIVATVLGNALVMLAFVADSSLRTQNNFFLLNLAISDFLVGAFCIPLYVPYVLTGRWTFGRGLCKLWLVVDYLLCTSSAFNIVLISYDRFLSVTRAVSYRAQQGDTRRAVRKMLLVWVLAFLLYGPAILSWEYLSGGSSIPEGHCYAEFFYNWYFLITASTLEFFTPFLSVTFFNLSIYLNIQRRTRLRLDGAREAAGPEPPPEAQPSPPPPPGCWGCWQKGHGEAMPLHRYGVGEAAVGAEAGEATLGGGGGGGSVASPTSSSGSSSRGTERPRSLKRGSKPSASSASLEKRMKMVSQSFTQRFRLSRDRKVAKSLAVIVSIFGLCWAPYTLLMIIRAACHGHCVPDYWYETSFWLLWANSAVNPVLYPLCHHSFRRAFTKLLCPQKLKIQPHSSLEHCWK

## O=C(OCc1ccc(OC(F)(F)F)cc1)N1C[C@@H]2CN(C(=O)c3ccc4[nH]nnc4c3)C[C@H]2C1 [Compound 13, (3aS,6aS)-5-(1H-Benzotriazole-5-carbonyl)-hexahydro-pyrrolo[3,4-c]pyrrole-2-carboxylic acid 4-trifluoromethoxy-benzyl ester]
[1]
  LPA2 receptor (h), antago. mode [% inhib]: 49 % inhib
[2]
  PCP receptor (r) [% inhib]: -16 % inhib
[3]
  Serotonin transporter (h) [% inhib]: 28 % inhib
[4]
  Histamine H2 receptor (h) [% inhib]: 12 % inhib
[5]
  PPARγ (h), antago. mode [% inhib]: 6 % inhib
[6]
  Nicotinic receptor (muscle) (h) [% inhib]: 3 % inhib
[7]
  S1P2 (h), agonist mode [% pos ctrl]: -2 % pos ctrl
[8]
  Muscarininc receptor M4 (h) [% inhib]: -17 % inhib
[9]
  Papp: 4.5 ×10⁻⁶ cm/s
[10]
  HIV-1 protease (h) [% inhib]: 0 % inhib
[11]
  MMP-9 (h) [% inhib]: -22 % inhib
[12]
  HDAC11 (h) [% inhib]: 0 % inhib
[13]
  Dopamine D1 receptor (h) [% inhib]: 0 % inhib
[14]
  ECE-1 (h) [% inhib]: 16 % inhib
[15]
  CDK2 (h) [% inhib]: 0 % inhib
[16]
  MAO-B (h) [% inhib]: 6 % inhib
[17]
  MMP-3 (h) [% inhib]: 3 % inhib
[18]
  logD at 12 h: 3.2
[19]
  LPA3 receptor (h), agonist mode [% pos ctrl]: -3 % pos ctrl
[20]
  Adenosine A3 respetor (h) [% inhib]: 33 % inhib
[21]
  GSH adducts: Neg
[22]
  LPA1 receptor (h) [% inhib]: -19 % inhib
[23]
  Histamine H3 receptor (h) [% inhib]: -10 % inhib
[24]
  Alpha1A-adrenoreceptor (h) [% inhib]: 6 % inhib
[25]
  5HT2a (h) [% inhib]: 39 % inhib
[26]
  HDAC4 (h) [% inhib]: 3 % inhib
[27]
  GABA-A (benzodiazepine site) (r) [% inhib]: -26 % inhib
